# pIC50: −log10 of the molar value.
# Legend:
# [1] = test system: A2780 cisplatin-sensitive cancer cells; assay: MTT cytotoxicity, cisplatin-sensitive A2780; format: cell-based; conditions: 72 h
# Text: (§1) All cells were obtained from the American Type Culture Collection (Rockville, MD, USA) unless otherwise specified. Immortalized wild-type and Atg7-deficient mouse embryonic fibroblasts (MEFs) were kindly provided by Professor Masaaki Komatsu (Juntendo University, School of Medicine, Japan). Taxol-resistant types of MCF-7, HCT-8, A549 cancers cells and cisplatin-resistant SGC7901 cancer cells were purchased from KeyGEN BioTECH, China. Cisplatin-sensitive or –resistant A2780, OV2008 and C13 cancer cells were kindly provided by Prof. Benjamin Tsang (Department of Obstetrics and Gynecology and Department of Cellular and Molecular Medicine, University of Ottawa, Canada). HCT116 p53^+/+ and p53^−/− isogenic human colon cancer cells were kindly provided by Professor Bert Vogelstein (Ludwig Center at Johns Hopkins, Howard Hughes Medical Institute, USA). All media were supplemented with 10% fetal bovine serum and antibiotics penicillin (50 U/ml) and streptomycin (50 μg/ml; Invitrogen, Paisley, Scotland, UK). All cell cultures were incubated at 37°C in a 5% humidified CO2 incubator.
# (§2) All tested compounds were dissolved in DMSO at a final concentration of 50 mmol/L and stored at −20°C before use. Cytotoxicity was assessed by using the 3-(4,5-dimethylthiazol-2-yl)-2, 5-diphenyltetrazolium bromide (MTT) (5.0 mg/ml) assay as previously described. Briefly, 4×10^3 cells per well were seeded in 96-well plates before drug treatments. After overnight culture, the cells were then exposed to different concentrations of selected compounds ([…]) for 72 hours. Cells without drug treatment were used as control. Subsequently, MTT (10 μL) solution was added to each well and incubated at 37°C for 4 hours followed by the addition of 100 μL solubilization buffer (10%SDS in 0.01 mol/L HCl) and overnight incubation. A570 nm was then determined in each well on the next day. The percentage of cell viability was calculated using the following formula: Cell viability (%) = Atreated/Acontrol × 100. Data were obtained from three independent experiments.
# [2] = test system: A2780 cisplatin-resistant cancer cells; assay: MTT cytotoxicity, cisplatin-resistant A2780; format: cell-based; conditions: for pIC50: A2780 cisplatin-resistant, MTT, 72 h; for Resistant Factor, A2780: cisplatin-resistant over cisplatin-sensitive IC50, A2780
# Text: as §1, §2
# [3] = test system: OV2008 (cisplatin-sensitive) cells; assay: MTT cytotoxicity, OV2008 (cisplatin-sensitive); format: cell-based; conditions: 72 h, read-out: IC50 value, cisplatin-sensitive cancer, OV2008
# Text: as §1, §2
# [4] = test system: cisplatin-resistant cancer cells (A2780, SGC-7901, OV2008 and C13); assay: MTT cytotoxicity, summary over cisplatin-sensitive/resistant pairs; format: cell-based; conditions: over A2780, SGC-7901, OV2008/C13 pairs
# Procedure: as §2
# [5] = test system: C13 (cisplatin-resistant) cells; assay: MTT cytotoxicity, C13 (cisplatin-resistant); format: cell-based; conditions: for pIC50: C13 (cisplatin-resistant), MTT, 72 h, read-out: IC50 value, cisplatin-resistant cancer, C13; for Resistant Factor, OV2008/C13 pair: C13 (resistant) IC50 over OV2008 (sensitive) IC50
# Text: as §1, §2
# [6] = test system: SGC-7901 cisplatin-sensitive cancer cells; assay: MTT cytotoxicity, cisplatin-sensitive SGC-7901; format: cell-based; conditions: 72 h
# Text: as §1, §2
# [7] = test system: SGC-7901 cisplatin-resistant cancer cells; assay: MTT cytotoxicity, cisplatin-resistant SGC-7901; format: cell-based; conditions: for pIC50: SGC-7901 cisplatin-resistant, MTT, 72 h; for Resistant Factor, SGC-7901: cisplatin-resistant over cisplatin-sensitive IC50, SGC-7901
# Text: as §1, §2
# [8] = test system: HCT-8 taxol-resistant cancer cells; assay: MTT cytotoxicity, taxol-resistant HCT-8; format: cell-based; conditions: for pIC50: HCT-8 taxol-resistant, MTT, 72 h; for Resistant Factor, HCT-8: IC50 of taxol-resistant cells over IC50 of taxol-sensitive cells
# Text: as §1, §2
# [9] = test system: A549 taxol-sensitive cancer cells; assay: MTT cytotoxicity, taxol-sensitive A549; format: cell-based; conditions: 72 h
# Text: as §1, §2
# [10] = test system: HCT-8 taxol-sensitive cancer cells; assay: MTT cytotoxicity, taxol-sensitive HCT-8; format: cell-based; conditions: 72 h
# Text: as §1, §2
# [11] = test system: A549 taxol-resistant cancer cells; assay: MTT cytotoxicity, taxol-resistant A549; format: cell-based; conditions: for pIC50: A549 taxol-resistant, MTT, 72 h; for Resistant Factor, A549: IC50 of taxol-resistant cells over IC50 of taxol-sensitive cells
# Text: as §1, §2
# [12] = test system: taxol-resistant MCF-7, HCT-8, and A549 cancer cells; assay: MTT cytotoxicity, summary over taxol-sensitive/resistant MCF-7, HCT-8 and A549 pairs; format: cell-based; conditions: IC50 of taxol-resistant over taxol-sensitive cells; over MCF-7, HCT-8 and A549
# Procedure: as §2
# [13] = test system: MCF-7 taxol-resistant cancer cells; assay: MTT cytotoxicity, taxol-resistant MCF-7; format: cell-based; conditions: for pIC50: MCF-7 taxol-resistant, MTT, 72 h; for Resistant Factor, MCF-7: IC50 of taxol-resistant cells over IC50 of taxol-sensitive cells
# Text: as §1, §2
# [14] = test system: MCF-7 taxol-sensitive cancer cells; assay: MTT cytotoxicity, taxol-sensitive MCF-7; format: cell-based
# Text: as §1, §2
# [15] = test system: HCT116 p53^+/+ colon cancer cells; assay: MTT cytotoxicity, HCT116 p53+/+; format: cell-based, human; conditions: 72 h
# Text: as §1, §2
# [16] = test system: LLC-1 (mouse lung cancer) cells; assay: MTT cytotoxicity assay, LLC-1; format: cell-based; conditions: LLC-1, MTT, 72 h
# Procedure: as §2
# [17] = test system: HeLa (cervical cancer) cells; assay: MTT cytotoxicity assay, HeLa; format: cell-based; conditions: 72 h
# Procedure: as §2
# [18] = test system: HCT116 p53^-/- colon cancer cells; assay: MTT cytotoxicity, HCT116 p53-/-; format: cell-based, human; conditions: for pIC50: HCT116 p53-/-, MTT, 72 h; for Resistant Factor, HCT116 p53-/- vs p53+/+: IC50 p53-/- over IC50 p53+/+
# Text: as §1, §2
# [19] = test system: normal human LO2 hepatocytes; assay: MTT cytotoxicity assay, LO2; format: cell-based; conditions: 72 h
# Procedure: as §2
# [20] = test system: MCF-7 (breast cancer) cells; assay: MTT cytotoxicity assay, MCF-7; format: cell-based; conditions: MCF-7, MTT, 72 h
# Procedure: as §2
# [21] = test system: H1975 (EGFR mutant lung cancer) cells; assay: MTT cytotoxicity assay, H1975; format: cell-based; conditions: 72 h
# Procedure: as §2
# [22] = test system: Hep3B (liver cancer) cells; assay: MTT cytotoxicity assay, Hep 3B; format: cell-based; conditions: 72 h
# Procedure: as §2
# [23] = test system: HepG2 (liver cancer) cells; assay: MTT cytotoxicity assay, HepG2; format: cell-based; conditions: 72 h
# Procedure: as §2
# [24] = test system: A549 (EGFR wild-type lung cancer) cells; assay: MTT cytotoxicity assay, A549; format: cell-based; conditions: 72 h
# Procedure: as §2
# [25] = test system: H1299 (lung cancer) cells; assay: MTT cytotoxicity assay, H1299; format: cell-based, human; conditions: 72 h
# Procedure: as §2
# panel of cancer cells = assay: MTT cytotoxicity assay, summary over the panel of cancer cells; format: cell-based; conditions: range over the cancer cell lines of Table 1, MTT, 72 h; read-out: mean IC50 values ranged (over the cancer cell lines)
# Procedure: as §2
Structure (SMILES),pIC50 [1],pIC50 [2],"Resistant Factor, A2780 [2]",pIC50 [3],pIC50 [5],"Resistant Factor, OV2008/C13 pair [5]",pIC50 [6],pIC50 [7],"Resistant Factor, SGC-7901 [7]","Resistant Factor, HCT-8 [8]","Resistant Factor, A549 [11]","Resistant Factor, MCF-7 [13]",pIC50 [8],pIC50 [15],pIC50 [16],pIC50 [9],pIC50 [17],pIC50 [18],"Resistant Factor, HCT116 p53-/- vs p53+/+ [18]",pIC50 [10],also measured
"N.N.[Cl][Pt][Cl] [Cisplatin, cis-[Pt^II(NH3)2Cl2], reference compound]",4.82,< 3.70,> 13.25,4.74,< 3.70,> 11.0,5.41,4.37,10.97,–,–,–,–,–,–,–,–,–,–,–,resistant factor in cisplatin-resistant cancers (summary) [4]: up to 13.25
"CC(=O)O[C@H]1C(=O)[C@@]2(C)[C@H]([C@H](OC(=O)c3ccccc3)[C@]3(O)C[C@H](OC(=O)[C@H](O)[C@@H](NC(=O)c4ccccc4)c4ccccc4)C(C)=C1C3(C)C)[C@]1(OC(C)=O)CO[C@@H]1C[C@@H]2O [Taxol, reference compound]",–,–,–,–,–,–,–,–,–,>15.9,42.4,4.51,–,–,–,–,–,–,–,–,"pIC50 ([8]; Homo sapiens): < 3.70; pIC50 ([9]; Homo sapiens): 5.81; pIC50 ([10]; Homo sapiens): 4.90; pIC50 ([11]; Homo sapiens): 4.18; resistant factor in taxol-resistant cancers (summary) [12]: up to 42.4; pIC50 ([13]; Homo sapiens, MCF7): 4.26; pIC50 ([14]; Homo sapiens, MCF7, 72 h): 4.91"
"Cc1ccnc(-c2cc(C)ccn2)c1.Cc1ccnc(-c2cc(C)ccn2)c1.Cc1ccnc(-c2cc(C)ccn2)c1.F[P-](F)(F)(F)(F)F.F[P-](F)(F)(F)(F)F.[Co+2] [complex 1, [Co^II(4,4’-Me2-bpy)3](PF6)2]",4.92,4.95,0.94,5.15,4.81,2.21,4.93,4.75,1.50,0.37,0.25,0.54,5.94,4.77,5.55,5.02,5.00,5.05,0.52,5.50,pIC50 [19]: 4.87; pIC50 [11]: 5.63; pIC50 [20]: 4.81; pIC50 [21]: 4.81; pIC50 [22]: 5.39; pIC50 [23]: 5.13; pIC50 [24]: 5.02; pIC50 [13]: 5.60; pIC50 [25]: 5.46; pIC50 ([14]; 72 h): 5.34
"COc1ccnc(-c2cc(OC)ccn2)c1.COc1ccnc(-c2cc(OC)ccn2)c1.COc1ccnc(-c2cc(OC)ccn2)c1.F[P-](F)(F)(F)(F)F.F[P-](F)(F)(F)(F)F.F[P-](F)(F)(F)(F)F.[Co+3] [complex 5, [Co^III(4,4’-(OMe)2-bpy)3](PF6)3]",4.62,4.57,1.13,4.85,4.69,1.45,4.67,4.68,0.96,0.24,0.19,0.66,5.98,4.11,5.06,4.82,4.89,4.38,0.53,5.37,pIC50 [19]: 4.69; pIC50 [11]: 5.55; pIC50 [20]: 4.97; pIC50 [21]: 5.03; pIC50 [22]: 5.27; pIC50 [23]: 4.81; pIC50 [24]: 4.73; pIC50 [13]: 5.20; pIC50 [25]: 5.06; pIC50 ([14]; 72 h): 5.02
"CCCCCCCCCc1ccnc(-c2cc(CCCCCCCCC)ccn2)c1.CCCCCCCCCc1ccnc(-c2cc(CCCCCCCCC)ccn2)c1.CCCCCCCCCc1ccnc(-c2cc(CCCCCCCCC)ccn2)c1.F[P-](F)(F)(F)(F)F.F[P-](F)(F)(F)(F)F.F[P-](F)(F)(F)(F)F.[Co+3] [complex 6, [Co^III(4,4’-(C9H19)2-bpy)3](PF6)3]",4.52,4.54,0.96,4.31,4.03,1.87,4.44,4.44,0.99,0.73,0.05,0.39,4.39,4.44,4.98,4.27,4.67,4.47,0.93,4.25,pIC50 [19]: 4.40; pIC50 [11]: 5.59; pIC50 (panel of cancer cells): 4.08 to 4.98; pIC50 [20]: 4.43; pIC50 [21]: 4.62; pIC50 [22]: 4.27; pIC50 [23]: 4.59; pIC50 [24]: 4.08; pIC50 [13]: 4.95; pIC50 [25]: 4.57; pIC50 ([14]; 72 h): 4.55

# From PMC5589637, “New perspectives of cobalt tris(bipyridine) system: anti-cancer effect and its collateral sensitivity towards multidrug-resistant (MDR) cancers” (Oncotarget, 2017)
